Usually MIC stands for the smallest concentration in the dilution series that meets the test's criterion for growth inhibition.

These results are taken from US20240285571A1, “METHODS OF TREATING BONE INFECTIONS” (MICROBION CORPORATION, priority 2020, published 2024).

Like-named read-outs stand apart in the source and are kept apart here.

One experiment relates to Peptoniphilus gorbachii. The experiment is described as follows: MIC of baseline clinical isolates (Example 8). Conditions: Peptoniphilus gorbachii baseline isolates (N′ = 1), central laboratory, mITT. The experiment is classed as cell-based. The procedure, abridged: (§1)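 Isolates came from samples taken on Day 1 and at any later surgery at the index site: infected bone or tissue next to implants, deep infection-site swabs, and superficial tissue, wound closure or sinus tract. Local clinical laboratories analysed parallel sample sets to guide antibiotic treatment.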

Experiment [1] concerns Cutibacterium [Propionibacterium] acnes. Nature of the experiment: MIC of baseline clinical isolates (Example 8). It counts as cell-based. The following applies: Cutibacterium (Proprionibacterium) acnes baseline isolates (N′ = 3), central laboratory, mITT. The essentials: as §1
Experiment [2] concerns Staphylococcus lugdunensis. The experiment is described as follows: MIC of baseline clinical isolates (Example 8). It counts as cell-based. Conditions: Staphylococcus lugdunensis baseline isolates (N′ = 3), central laboratory, mITT. The essentials:
as §1

The subject of experiment [3] is Staphylococcus haemolyticus. The experiment is described as follows: MIC of baseline clinical isolates (Example 8). Conditions: Staphylococcus haemolyticus baseline isolates (N′ = 1), central laboratory, mITT. It counts as cell-based. The procedure, abridged: as §1
In the next experiment the test system is Actinomyces turicensis. The experiment is described as follows: MIC of baseline clinical isolates (Example 8). It counts as cell-based. The following applies: Actinomyces turicensis baseline isolates (N′ = 1), central laboratory, mITT. The procedure, abridged:
as §1

The test system of a further experiment is Staphylococcus pasteuri. Nature of the experiment: MIC of baseline clinical isolates (Example 8). It counts as cell-based. Conditions: Staphylococcus pasteuri baseline isolates (N′ = 1), central laboratory, mITT. The essentials:
as §1

The next experiment deals with F. magna. The experiment is described as follows: MIC of baseline clinical isolates (Example 8). The following applies: Finegoldia magna baseline isolates (N′ = 4), central laboratory, mITT. The experiment is classed as cell-based. The essentials: as §1
In the next experiment the test system is Staphylococcus arlettae. The experiment is described as follows: MIC of baseline clinical isolates (Example 8). It counts as cell-based. Conditions: Staphylococcus arlettae baseline isolates (N′ = 1), central laboratory, mITT. The procedure, abridged:
as §1

The next experiment relates to C. difficile. The experiment is described as follows: Agar dilution MIC, anaerobes (Example 5). The experiment is classed as cell-based, Clostridium difficile. Conditions: Clostridioides difficile.
Another experiment deals with E. coli. Nature of the experiment: Broth microdilution MIC (Example 5). Conditions: Escherichia coli. It counts as cell-based, Escherichia coli. On the procedure:
Test and Comparator Agents: The test agents were stored at room temperature until assayed. […] The stock solutions were allowed to stand for at least 1 hr prior to use to auto-sterilize.
TestMedia: Test media were prepared and stored in accordance with guidelines from CLSI (4, 6, 7).
Broth Microdilution MC Testing (Aerobic Bacteria and Yeast): The broth microdilution assay method employed for the susceptibility testing of aerobic bacteria (excluding N. gonorrhoeae which was evaluated by agar dilution) and yeast essentially followed the procedures described by CLSI (3, 4, 7, 8) and employed automated liquid handlers to conduct serial dilutions and liquid transfers. […] These would become the ‘mother plates’ from which ‘daughter’ or test plates would be prepared. The drugs (300 μL at 40× the desired top concentration in the test plates) were dispensed into the appropriate well in Column 1 of the mother plates. The Biomek 2000 was used to make serial two-fold dilutions through Column 11 in the “mother plate”. The wells of Column 12 contained no drug and ultimately served as the organism growth control wells.
The daughter plates were prepared using the Biomek FX which transferred 5 μL of drug solution from each well of a mother plate to the corresponding well of the correct daughter plate in a single step.
A standardized inoculum of each organism was prepared per CLSI methods (3, 7). Isolated colonies of each test isolate were picked from the primary plate and a suspension was prepared to equal a 0.5 McFarland turbidity standard. Standardized suspensions were then diluted […] (1:100 for yeast, 1:20 for bacteria). After dilution, the inoculum suspensions were then transferred to compartments of sterile reservoirs divided by length (Beckman Coulter), and the Biomek 2000 was used to inoculate all plates. Daughter plates were placed on the Biomek 2000 in reverse orientation so that plates were inoculated from low to high drug concentration.
The Biomek 2000 delivered 10 μL of standardized inoculum into each well of the appropriate daughter plate for an additional 1:20 dilution.
Plates were stacked 4 high, covered with a lid on the top plate, placed into plastic bags, and incubated at 35° C. for approximately 24-48 hr for all yeast isolates and 16-24 hr for aerobic bacteria. Plates were viewed from the bottom using a plate viewer. […] MIC endpoints for the test agents and control compounds were read per CLSI criteria (3, 7).
On the technique in general: Broth dilution looks for growth in wells or tubes with falling amounts of substance.

Where [4] appears, read: ATCC700057, C. difficile MMX 4381 (ATCC 700057), QC, CCI.
[5] abbreviates: C. difficile MMX 8272, ribotype 255, CCI.
Setting [6] is: C. difficile MMX 8279, ribotype 005, CCR.
Setting [7] is: C. difficile MMX 8281, ribotype 010, CCR.
[8] abbreviates: NCTC13307, C. difficile MMX 5681 (NCTC 13307), ribotype 012, CCR.
[9] abbreviates: NCTC13336, C. difficile MMX 5680 (NCTC 13336), ribotype 027, CCI METR.

`CCC[C@@H]1C[C@@H](C(=O)N[C@@H]([C@H]2O[C@H](SC)[C@H](O)[C@@H](O)[C@H]2O)[C@H](C)Cl)N(C)C1` [CLI]: the “Mean MIC” value was determined as 8.00 µg/mL in the experiment on Peptoniphilus gorbachii; 0.25 µg/mL in experiment [1]; 0.03 µg/mL in experiment [2]; 8.00 µg/mL in [3]; 0.25 µg/mL in the experiment on Actinomyces turicensis; 1.00 µg/mL in the experiment on Staphylococcus pasteuri. The “Mean MIC” value in the experiment on F. magna is 4.38 µg/mL; in the experiment on Staphylococcus arlettae, 0.25 µg/mL. Besides, the “n (% resistant)” value with Peptoniphilus gorbachii is 1 (100.0) n (%); in experiment [1], 0 (0.0) n (%); in experiment [2], 0 (0.0) n (%); in experiment [3], 1 (100.0) n (%); with Actinomyces turicensis it was 0 (0.0) n (%); with Staphylococcus pasteuri, 1 (100.0) n (%). Moreover, the figures for the “n (% resistant)” value with F. magna and in the experiment with Staphylococcus arlettae were 2 (50.0) n (%) and 0 (0.0) n (%), respectively.

Take `OCC(S)CS.[Bi]` (stereo not shown) [MB-2B, bismuth-2,3-dimercaptopropanol]: the MIC in the experiment with C. difficile (setting [4]) was 8 µg/mL; against C. difficile (setting [5]) it was 8 µg/mL; against C. difficile (setting [6]), 16 µg/mL; in the experiment with C. difficile (setting [7]), 8 µg/mL; in the experiment on C. difficile (setting [8]), 8 µg/mL; against C. difficile (setting [9]), 2 µg/mL. Moreover, the MIC in the experiment with E. coli (ATCC25922, E. coli MMX 102 (ATCC 25922), QC, read-out: MIC) was 2 µg/mL; against E. coli (ATCCBAA2469, E. coli MMX 5980 (ATCC BAA-2469), NDM-1), 2 µg/mL; with E. coli (E. coli MMX 8423, ESBL, LevR CAZR GmR, read-out: MIC), 2 µg/mL; in the experiment on E. coli (E. coli MMX 8424, ESBL, CAZR, read-out: MIC), 4 µg/mL; with E. coli (E. coli MMX 8425, ESBL, LevR CAZR GmR, read-out: MIC), 2 µg/mL.

`CC(S)C(C)S.[Bi]` (stereo not shown) [MB-6, bismuth-2,3-butanedithiol]: the MIC in the experiment on C. difficile (setting [4]) turned out to be 4 µg/mL; against C. difficile (setting [5]) it was 2 µg/mL; against C. difficile (setting [6]), 2 µg/mL; in the experiment with C. difficile (setting [7]), 2 µg/mL; against C. difficile (setting [8]) it was 2 µg/mL; against C. difficile (setting [9]), 2 µg/mL.

For the compound `C[C@H]1COc2c(N3CCN(C)CC3)c(F)cc3c(=O)c(C(=O)O)cn1c23` [Levofloxacin], the minimum inhibitory concentration (MIC) in experiment [2] is 0.92 µg/mL; in experiment [3], 8 µg/mL; with Staphylococcus pasteuri, 0.25 µg/mL; in the experiment with Staphylococcus arlettae, 0.5 µg/mL. Moreover, the “n (% resistant)” value in experiment [2] is on record as 0 (0.0) n (%); in [3] it was 1 (100.0) n (%); with Staphylococcus pasteuri, 0 (0.0) n (%); in the experiment with Staphylococcus arlettae, 0 (0.0) n (%).

In the case of `C[C@@H](O)[C@H]1C(=O)N2C(C(=O)O)=C(S[C@@H]3CN[C@H](C(=O)N(C)C)C3)[C@H](C)[C@H]12` [Meropenem], the MIC was 0.06 µg/mL with Peptoniphilus gorbachii, 0.06 µg/mL in experiment [1], 0.25 µg/mL with Actinomyces turicensis (Schaalia turicensis) and 0.06 µg/mL with F. magna. The “n (% resistant)” value (in the experiment on Peptoniphilus gorbachii; in experiment [1]; in the experiment on Actinomyces turicensis; with F. magna) was 0 (0.0) n (%) each time.
